Usually IC50 stands for the concentration at which inhibition is half-maximal. One may read the inhibition as the drop in the measured response relative to a control, in per cent. A low value points to little suppression. For orientation: Kd means the constant that tells how readily two partners part at equilibrium. Read a high Kd as weaker binding.

Numbered stars: 1 amine (or outer) side, 2 acyl side, 3 side chain; on linkers, the order of the positions; unused ones are H or OH. Square brackets hold non-standard residues; d marks the D form. Peptide text beside a SMILES is read from it. X1 = NS(=O)(=O)Cc1ccc(C[C@H](N[*:1])C(=O)[*:2])cc1

The nature of assay [1]: Inhibition of Bacillus anthracis PIsY1.
Assay [2] has as its target T1, Tyrosine-protein phosphatase non-receptor type 1 (Homo sapiens) (UniProt P18031).
T1 sequence (whole entry): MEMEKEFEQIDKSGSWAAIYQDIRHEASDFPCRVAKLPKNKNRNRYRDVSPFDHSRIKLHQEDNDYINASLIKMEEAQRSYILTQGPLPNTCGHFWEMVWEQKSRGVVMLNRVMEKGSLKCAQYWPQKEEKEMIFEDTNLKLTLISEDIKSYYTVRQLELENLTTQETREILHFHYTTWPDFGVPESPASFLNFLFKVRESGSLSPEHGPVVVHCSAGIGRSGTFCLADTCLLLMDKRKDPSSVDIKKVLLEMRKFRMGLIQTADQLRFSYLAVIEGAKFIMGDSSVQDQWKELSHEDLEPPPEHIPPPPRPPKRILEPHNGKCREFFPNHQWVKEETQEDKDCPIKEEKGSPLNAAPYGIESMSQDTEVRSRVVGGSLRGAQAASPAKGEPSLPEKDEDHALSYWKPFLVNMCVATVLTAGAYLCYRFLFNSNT
The assay is described as follows: Inhibition of PTP1B (unknown origin) at 11 uM.

For assay [3], the target named is Growth factor receptor-bound protein 2 (Homo sapiens, UniProt P62993). The assay is described as follows: Binding affinity to SH2 domain of GRB2 (unknown origin) by surface plasmon resonance assay.
A short description of assay [4]: Agonist activity at INSP3R in MFF assessed as calcium influx. Set-up: species or system Mus musculus.
Assay [5] in a line: Inhibition of Streptococcus pneumoniae PIsY1.
A short description of assay [6]: Inhibition of Yersinia pestis protein tyrosine phosphatase.

Chain of Growth factor receptor-bound protein 2 (P62993 whole entry, the tested form may be a part): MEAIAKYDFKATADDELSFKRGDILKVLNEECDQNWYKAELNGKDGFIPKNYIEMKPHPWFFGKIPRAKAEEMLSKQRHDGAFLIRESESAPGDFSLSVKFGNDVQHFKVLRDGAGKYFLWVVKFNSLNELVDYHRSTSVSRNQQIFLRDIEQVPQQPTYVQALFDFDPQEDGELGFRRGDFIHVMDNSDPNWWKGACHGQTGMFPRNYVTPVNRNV

The compound `CCCCCCCCCCCCCCCC(=O)NS(=O)(=O)Oc1ccc(OC)cc1` returned an IC50 in assay [1] of 35 µM. In assay [2], `CCCCCNC(=O)[C@H](Cc1ccc(OC(C(=O)O)C(=O)O)cc1)NC(=O)CCC(=O)O` came in with an inhibition of 80%. On to `Cc1ccc2c(ccn2C[C@@H]2C/C=C\C[C@H](c3ccc(CP(C)(=O)O)cc3)[C@H](CC(=O)O)C(=O)NC3(CCCCC3)C(=O)N[C@@H](CC(N)=O)C(=O)NC2)c1`, for which the Kd in assay [3] came to 0.0162 µM.

In the case of `CCCCCCCC/C=C/CCCCCCCC(=O)NS(=O)(=O)NCCC`, the IC50 in assay [1] worked out at 200 µM. Same read-out and setting: the result for `CCCCCCCCCCCCCCCC(=O)CP(=O)(O)O` reads 90 µM. With `COP(=O)(O)O[C@@H]1[C@@H](O)[C@H](OP(=O)(O)O)[C@H](O)[C@H](O)[C@H]1OP(=O)(O)O`, the IC50 in assay [4] was found to be 9.7 µM. As to `CCCCCCCCCCCCCCCC(=O)C(F)(F)P(=O)(O)O`, the 50% inhibitory concentration (IC50) in assay [5] was determined as 39 µM; in assay [1] it was 50 µM.

The compound `CC(=O)N[C@@H](CC(=O)O)C(=O)N[C@@H](C)C(=O)N[C@@H](CC(=O)O)C(=O)N[C@@H](CCC(=O)O)C(=O)N[C@@H](Cc1ccc(CS(N)(=O)=O)cc1)C(=O)N[C@@H](CC(C)C)C(N)=O` (Ac-DADE[X1]L-NH2) had an IC50 in assay [6] of 0.37 µM. In assay [5], `CCCCCC/C=C/CCCCCCCCCC(=O)NP(=O)(O)O` showed an IC50 of 11 µM.

(Values after ChEMBL document CHEMBL3217618, “The use of phosphate bioisosteres in medicinal chemistry and chemical biology” (Medchemcomm, 2012).)
